Source: patent US20070275935A1, “Estratriene Derivatives” (priority 2003, published 2007)

Key:
[1] = system: human breast tumour cell line, MCF7; assay: Proliferation of MCF7 cells in response to 5% FCS or EGF; type: cell-based; details: for effect on proliferation of MCF7 cells, in words (FIG. 3): 5% FCS or EGF 300 pM
Method: (§1) The effects of 4NO were evaluated in a number of non-smooth muscle cell types including the type II airway epithelial cell line, A549 (ATCC accession number ATCC CCL-185 Lung carcinoma human) (FIG. 2); the human breast tumour cell line, MCF7, (ATTC accession number ATCC HTB-22 breast adenocarcinoma, human) which expresses the estrogen receptor (FIG. 3); and in bovine aortic endothelial cells (BAEC) (FIG. 4).
(§2) The effects of test compounds were examined on proliferation of A549 cells in response to 5% fetal calf serum (FCS). Analogues were pre-incubated with A549 cells for 30 min before the addition of FCS. The incubation continued for 48 h before cell enumeration. Data are expressed as a percentage of the cell number in vehicle treated wells and are presented as the mean and standard error of the mean. Similarly the effects of 2MEO and 4NO on proliferation of MCF7 in response to 5% FCS or epidermal growth factor (EGF, 300 pM) were examined, as were the effects of 2MEO and 4NO on proliferation of BAEC in response to 5% FCS. The incubation parameters were the same as described above and results are presented as the mean and standard error of the mean.
This assay was also used to evaluate the ability of other compounds to inhibit the proliferation of non-smooth muscle cells MCF7 and A549 (described above) in response to 5% FCS. The results of this assay are presented in Table 4 (columns G and H respectively). The potency of the compounds was considerably less in inhibiting proliferation of these cell lines than it was for HASM. These observations support the contention that there are cell type-specific targets for the actions of these compounds. Such assays may also be adopted to examine the effect of other disclosed compounds on these cells or on other non-smooth muscle cells of interest.

[2] = system: bovine aortic endothelial cells (BAEC); assay: Proliferation of bovine aortic endothelial cells in response to 5% FCS; type: cell-based
Method: as §1, §2

[3] = target: colchicine binding site on tubulin; assay: Colchicine displacement assay on partially purified tubulin; details: partially purified lamb brain tubulin, 1 μM 3H colchicine
Method: For the binding assays, a partial purification of tubulin was derived from the polymerization-depolymerization method of Williams and Lee (Williams et al., 1982). Three lamb brains (approximately 150 g total) were obtained approximately fifteen minutes after slaughter. Batches of 100g of brain were homogenized in 50 mL cold PM4M buffer (100 mM piperazine-N,N′-bis[2-ethane sulfonic acid] (PIPES), 1 mM MgSO4, 2 mM ethylene glycol tetra-acetate (EGTA), 2 mM DTT, 4 M glycerol, pH 6.9) using a domestic blender (Power Blender, Ronson) on the highest setting for 30 s. The crude homogenate was centrifuged for 15 mins (9000 rpm (6500×g), 4° C.) and the precipitate (cell debris, extracellular matrix and crude nuclear fraction) discarded. The 6500×g supernatant was then centrifuged for 75 mins (28 000 rpm (96 000×g), 4° C.) and the precipitate (consisting largely of cell membranes) was discarded.
The GTP (guanosine triphosphate) concentration of the 96 000×g supernatant was adjusted to 1 mM by the addition of an appropriate amount of a freshly prepared solution of 50 mM GTP in distilled water. […]
Reaction mixtures were incubated for 30 mins at 37° C. in a water bath, followed by cold stabilization on ice for 1 to 1.5 hours. […] 5 ml “Emulsifier Safe” scintillation fluid (Packard) was added to each tube, and the samples counted in a Packard 1600TR liquid scintillation analyzer.

[4] = system: HASM cells; assay: PDGF(BB)-induced migration of HASM cells (modified Boyden chamber); type: cell-based, human; details: PDGF(BB) 1 ng/ml, 5 h, 30 min pre-treatment
Method: Costar transwell culture inserts (Corning Inc, USA) with 6.5 mm diameter and […] were coated overnight at 4° C. with 0.1% gelatin (Bovine skin; Sigma, USA) prior to the commencement of the assay (modified Boyden chamber assay). HASM cells were deprived of serum for 24 h prior to the commencement of the assay. Cells were added to the upper side of the transwell inserts with or without 30 min pre-treatment with one of the test compounds. Platelet-derived growth factor(BB) (1 ng/ml) was added to the lower compartment to stimulate cell migration and the chambers and cells left for 5 h. After this period the membranes with the adherent cells were washed with PBS, and fixed for 2 min with DiffQuick (Lab Aids, Aus) fixative and then stained with DiffQuick. Membranes were then washed twice in PBS, peeled off the inserts and placed onto slides. Membranes were visualised by light microscopy, and the number of migrated cells in five fields (×400) were counted in triplicate.
The numbers of HASM appearing on the underside of the porous membrane was counted and the responses were expressed as a percentage of the number of cells migrating in response to PDGF in the absence of pre-treatment.

[5] = system: mice (C57BL/6) sensitised to ovalbumin; assay: Airway hyperresponsiveness to methacholine in ovalbumin-sensitised mice; type: in vivo; details: ovalbumin-challenged mice; for airway reactivity to intravenous methacholine (change in respiratory resistance) (FIG. 8): 50 mg/kg/day intraperitoneally; for airway reactivity to intravenous methacholine (change in respiratory resistance) (FIG. 9): 50 mg/kg/day orally
Method: Conscious female mice (C57BL/6) of 6-8 weeks of age were sensitised by a 0.2 ml intraperitoneal injection of 50 ug ovalbumin (in 10 mg/ml aluminium hydroxide) on day 0 and 12. and subsequently challenged with an aerosol of OVA (1% w/v)/FCS (5% v/v) on days 20-28 for 30 minutes. The aerosol exposures were achieved by placing the rodents in a whole body plethysmograph apparatus and then nebulising the […] into the chamber through a port located on the top of the chamber. The aerosol exited the chamber via a bias flow into a particle trap.
Drug treatments were administered to assess the effects of drugs on the development of airway hyperresponsiveness. Drug treatment commenced the day prior (day 19) to the first exposure to OVA (day 20) and continued throughout the period during which the mice were challenged with OVA. Drug treatment comprised 4NO or 2MEO, each at 50 mg/kg administered once daily 2h before OVA exposure to either intraperitoneally or orally in a vehicle of 10% DMSO/90% peanut oil in a volume of 100 μL.
After the 26-28 day sensitisation and challenge protocol, airway obstruction in response to the bronchoconstrictor methacholine was measured. The mice were anaesthetised with a mixture of ketamine/xylazine. A tracheostomy was performed, and a catheter placed in the jugular vein to administer methacholine intravenously. The mouse was then be placed in a whole body plethysmograph and mechanically ventilated (150 breaths/min at a tidal volume of 10 ml/kg). The transpulmonary pressure was measured with a differential pressure transducer with one port attached to the interior of the plethysmograph and the other to the intratracheal cannula. The airflow rate was measured with a pneumotachograph.
The change in airways resistance in response to intravenous methacholine (1-1000 μg/kg, given 4 minutes apart) was calculated on-line with a Buxco pulmonary mechanics analyzer.
The effects of treatment of ovalbumin-challenged mice (veh-OVA) with either 2MEO or 4NO, provided intraperitoneally at 50 mg/kg/day on airway reactivity to intravenously administered methacholine are shown in FIG. 8. Data are expressed as the change in respiratory resistance from the baseline level and are presented as the mean and standard error of the mean.
OVA challenge (veh-OVA) increased the airway reactivity to methacholine compared to that detected in non-challenged mice (veh-SAL).

[6] = system: HASM cells; assay: Shape of HASM cells in the presence of thrombin; type: cell-based, human; details: thrombin 0.3 U/mL, 48 h
Method: The effects of 2MEO and 4NOM on the shape of HASM in the presence thrombin (0.3 U/mL) was investigated. Analogues were pre-incubated with HASM for 30 min before the addition of thrombin. The incubation continued for 48 h before capturing images of the HASM.

[7] = system: cyclin D1; assay: Thrombin-mediated cyclin D1 protein expression in HASM (Western blotting); type: cell-based, human; details: 0.01 μM-1 μM pre-incubation; thrombin 0.3 U/ml, 8 h
Method: Human airway smooth muscle cells were cultured as described above in the proliferation experiments. Cells were serum-deprived for 24 h and stimulated with thrombin (0.3 U/ml) for 8h before harvest of protein for Western Blotting of cyclin D1.

Structure (SMILES) | effect on proliferation of MCF7 cells, in words (FIG. 3) ([1]; concentration not given) | MCF7 pIC50 ([1]; proliferation in response to 5% FCS, pIC50 of 4.00 = inactive) | effect on proliferation of BAEC, in words (FIG. 4) ([2]; concentration not given) | Tubulin affinity (pIC50 ^3H-colchicine displacement) [3] | migration in response to PDGF [4] | airway reactivity to intravenous methacholine (change in respiratory resistance) (FIG. 8) [5] | airway reactivity to intravenous methacholine (change in respiratory resistance) (FIG. 9) [5] | effect on the shape of HASM cells ([6]; 10 μM) | effect on proliferation of MCF7 cells, in words (FIG. 3) ([1]; concentrations below 3 μM) | effect on proliferation of BAEC, in words (FIG. 4) ([2]; concentrations below 3 μM) | cyclin D1 protein levels [7] | effect on the shape of HASM cells ([6]; 1 μM)
COc1cc2c(cc1O)CC[C@@H]1[C@@H]2CC[C@]2(C)[C@@H](O)CC[C@@H]12 [2-methoxyestradiol, reference compound] | effective inhibitor | 5.40 | effective inhibitor | 4.8 | significantly reduced levels of migration | able to reduce the increase in respiratory resistance | able to reduce the increase in respiratory resistance | caused extensive rounding of cells |  |  |  | 
COc1cc2c(cc1O)C(=NOCc1ccc([N+](=O)[O-])cc1)C[C@@H]1[C@@H]2CC[C@]2(C)[C@@H](O)CC[C@@H]12 [CP-DM-2-11-7, 2-methoxy-6-(4-nitrobenzyloxy)iminoestradiol] |  |  |  | <4.0 | significantly reduced levels of migration | able to reduce the increase in respiratory resistance | able to reduce the increase in respiratory resistance |  | no detectable effect | no detectable effect | concentration-dependent reduction in the cyclin D1 protein levels | no detectable effects on the shape of the HASM cells
